Experimental data: patent US10961202B2, “Bis-benzimidazole compounds and methods of using the same” (THE SCRIPPS RESEARCH INSTITUTE, priority 2017, dated 2021)

Columns and labels:
[1] = test system: MBNL1 exon 5 inclusion in DM1 myotubes; assay: Myotube splicing rescue assay (MBNL1 exon 5 inclusion); assay type: cell-based, human; conditions: 48-hour incubation
[2] = test system: r(CUG)12-MBNL1 complex; assay: Inhibition of the r(CUG)12-MBNL1 complex measured by TR-FRET; assay type: biochemical; conditions: 80 nM RNA, 60 nM MBNL1-His6

Structure (SMILES) | MBNL1 % splicing rescue at 10 μM [1] | IC50 ([2]; Table L) | MBNL1 % splicing rescue at 1 μM [1] | IC50 ([2]; Table M)
CCN(CC)CCNC(=O)c1ccc(-c2nc3cc(-c4ccc5[nH]c(-c6ccc(C(=O)NCCN(CC)CC)cc6)nc5c4)ccc3[nH]2)cc1 [Compound 112] | 66.5% | 5 µM | – | –
CC(C)N(CCNC(=O)c1ccc(-c2nc3cc(-c4ccc5[nH]c(-c6ccc(C(=O)NCCN(C(C)C)C(C)C)cc6)nc5c4)ccc3[nH]2)cc1)C(C)C [Compound 113] | 45.3% | 12.6 µM | 7.9% | –
O=C(NCCN1CCCC1)c1ccc(-c2nc3cc(-c4ccc5[nH]c(-c6ccc(C(=O)NCCN7CCCC7)cc6)nc5c4)ccc3[nH]2)cc1 [Compound 115] | 57.5% | 7.1 µM | – | –
O=C(NCCN1CCCCC1)c1ccc(-c2nc3cc(-c4ccc5[nH]c(-c6ccc(C(=O)NCCN7CCCCC7)cc6)nc5c4)ccc3[nH]2)cc1 [Compound 116] | 74.7% | 5.3 µM | – | –
O=C(NCCN1CCCCC1)c1ccc2nc(-c3ccc(-c4nc5ccc(C(=O)NCCN6CCNCC6)cc5[nH]4)cc3)[nH]c2c1 [Compound 126, N-(2-(piperazin-1-yl)ethyl)-2-(4-(6-((2-(piperidin-1-yl)ethyl)carbamoyl)-1H-benzo[d]imidazol-2-yl)phenyl)-1H-benzo[d]imidazole-6-carboxamide] | 29.6% | 9.5 µM | 16.6% | –
O=C(NCCN1CCC(O)CC1)c1ccc2[nH]c(-c3ccc(-c4nc5ccc(C(=O)NCCN6CCC(O)CC6)cc5[nH]4)cc3)nc2c1 [Compound 146] | 7.1% | 15.8 µM | 0.8% | –
CN(C)CCNC(=O)c1ccc2nc(-c3ccc(-c4nc5ccc(NC6=NCCN6C6=NCCN6)cc5[nH]4)cc3)[nH]c2c1 [Compound 148] | 1.7% | 7.4 µM | – | –
CN(C)CCNC(=O)c1ccc2nc(-c3ccc(-c4nc5ccc(NC6=NCCN6)cc5[nH]4)cc3)[nH]c2c1 [Compound 149] | −1.1% | 6.1 µM | – | –
c1cc(-c2nc3ccc(N4CCNCC4)cc3[nH]2)ccc1-c1nc2ccc(N3CCNCC3)cc2[nH]1 [Compound 150] | 41.0% | 29.6 µM | – | –
Nc1ccc(-c2nc3cc(-c4ccc5[nH]c(-c6ccc(NC7=NCCN7C7=NCCN7)cc6)nc5c4)ccc3[nH]2)cc1 [Compound 160] | 63.0% | 19.2 µM | – | –
CN(C)CCCOc1ccc2nc(-c3ccc(-c4ccc(-c5nc6ccc(OCCCN(C)C)cc6[nH]5)cc4)cc3)[nH]c2c1 [Compound 170] | 85.5% | – | 24.6% | 6.14 µM
CN(C)CCCOc1ccc2nc(-c3ccc(-c4nc5ccc(NC6=NCCN6C6=NCCN6)cc5[nH]4)cc3)[nH]c2c1 [Compound 171] | 7.8% | – | 11.5% | 9.66 µM
[N-]=[N+]=NCCN1CCN(CCNC(=O)c2ccc3nc(-c4ccc(-c5nc6ccc(C(=O)NCCN7CCCCC7)cc6[nH]5)cc4)[nH]c3c2)CC1 [Compound 172, N-(2-(4-(2-azidoethyl)piperazin-1-yl)ethyl)-2-(4-(6-((2-(piperidin-1-yl)ethyl)carbamoyl)-1H-benzo[d]imidazol-2-yl)phenyl)-1H-benzo[d]imidazole-6-carboxamide] | 14.2% | – | 22.1% | 28.3 µM
O=C(NCCN1CCCCC1)c1ccc2nc(-c3ccc(-c4nc5ccc(C(=O)NCCN6CCCCC6)cc5[nH]4)c([N+](=O)[O-])c3)[nH]c2c1 [Compound 173, 2,2′-(2-nitro-1,4-phenylene)bis(N-(2-(piperidin-1-yl)ethyl)-1H-benzo[d]imidazole-6-carboxamide)] | 23.1% | – | 1.5% | 22 µM
O=C(NCCN1CCCCC1)c1ccc2nc(-c3ccc(-c4nc5ccc(C(=O)NCCN6CCCCC6)cc5[nH]4)c(F)c3)[nH]c2c1 [Compound 174] | 1.9% | – | 5.2% | 4.32 µM
Nc1cc(-c2nc3ccc(C(=O)NCCN4CCCCC4)cc3[nH]2)ccc1-c1nc2ccc(C(=O)NCCN3CCCCC3)cc2[nH]1 [Compound 176, 2,2′-(2-amino-1,4-phenylene)bis(N-(2-(piperidin-1-yl)ethyl)-1H-benzo[d]imidazole-6-carboxamide)] | −5.0% | – | – | 5.52 µM
NCCN1CCN(CCNC(=O)c2ccc3nc(-c4ccc(-c5nc6ccc(C(=O)NCCN7CCCCC7)cc6[nH]5)cc4)[nH]c3c2)CC1 [Compound 185, N-(2-(4-(2-aminoethyl)piperazin-1-yl)ethyl)-2-(4-(6-((2-(piperidin-1-yl)ethyl)carbamoyl)-1H-benzo[d]imidazol-2-yl)phenyl)-1H-benzo[d]imidazole-6-carboxamide] | 39.2% | – | – | 8.13 µM

Structure (SMILES) | MBNL1 % splicing rescue at 10 μM [1] | IC50 ([2]; Table L) | MBNL1 % splicing rescue at 1 μM [1] | IC50 ([2]; Table M)
CN(C)CCCCCOc1ccc2nc(-c3ccc(-c4nc5ccc(OCCCCCN(C)C)cc5[nH]4)cc3)[nH]c2c1 [Compound 192] | 111.7% | – | – | 12.9 µM
NCCCOc1ccc2nc(-c3ccc(-c4nc5ccc(OCCCN)cc5[nH]4)cc3)[nH]c2c1 [Compound 201, 3,3′-((1,4-phenylenebis(1H-benzo[d]imidazole-2,6-diyl))bis(oxy))bis(propan-1-amine)] | −13.2% | – | – | 16.4 µM
CN(C)CCCS(=O)(=O)c1ccc2[nH]c(-c3ccc(-c4nc5cc(S(=O)(=O)CCCN(C)C)ccc5[nH]4)cc3)nc2c1 [Compound 202, 3,3′-(2,2′-(1,4-phenylene)bis(1H-benzo[d]imidazole-6,6′-sulfonyl))bis(N,N-dimethylpropan-1-amine)] | 34.0% | – | – | 42 µM
CN(C)CCCOc1ccc2nc(-c3ccc(-c4nc5ccc(OCCCN)cc5[nH]4)cc3)[nH]c2c1 [Compound 205, 3-((2-(4-(6-(3-aminopropoxy)-1H-benzo[d]imidazol-2-yl)phenyl)-1H-benzo[d]imidazol-6-yl)oxy)-N,N-dimethylpropan-1-amine] | −48.4% | – | – | 27.3 µM
CN(C)CCCCCCOc1ccc2nc(-c3ccc(-c4nc5ccc(OCCCCCCN(C)C)cc5[nH]4)cc3)[nH]c2c1 [Compound 212] | 77.0% | – | – | 5.3 µM
CN(C)CCc1cn(-c2ccc3nc(-c4ccc(-c5nc6ccc(-n7cc(CCN(C)C)nn7)cc6[nH]5)cc4)[nH]c3c2)nn1 [Compound 221] | −2.5% | – | – | 2.53 µM
CN(C)CCCOc1ccc2nc(-c3ccc(-c4nc5ccc(OCCCC(=O)OC(C)(C)C)cc5[nH]4)cc3)[nH]c2c1 [Compound 252, tert-butyl 4-((2-(4-(5-(3-(dimethylamino)propoxy)-1H-benzo[d]imidazol-2-yl)phenyl)-1H-benzo[d]imidazol-5-yl)oxy)butanoate] | 13.0% | – | – | 18.9 µM
C#CCOc1cc(-c2nc3ccc(OCCCN(C)C)cc3[nH]2)ccc1-c1nc2ccc(OCCCN(C)C)cc2[nH]1 [Compound 255, 3,3′-((2,2′-(2-(prop-2-yn-1-yloxy)-1,4-phenylene)bis(1H-benzo[d]imidazole-6,2-diyl))bis(oxy))bis(N,N-dimethylpropan-1-amine)] | 89.2% | – | – | 3.7 µM
CN(C)CCCOc1ccc2nc(-c3ccc(-c4nc5ccc(OCCCN(C)C)cc5[nH]4)c(O)c3)[nH]c2c1 [Compound 256, 2,5-bis(6-(3-(dimethylamino)propoxy)-1H-benzo[d]imidazol-2-yl)phenol] | 90.6% | – | – | 10.7 µM
CN(C)CCCOc1ccc2nc(-c3ccc(-c4nc5ccc(OCCCN(C)C)cc5[nH]4)c(Cl)c3)[nH]c2c1 [Compound 257, 3,3′-((2,2′-(2-chloro-1,4-phenylene)bis(1H-benzo[d]imidazole-6,2-diyl))bis(oxy))bis(N,N-dimethylpropan-1-amine)] | 92.1% | – | – | 24.6 µM
COCCOc1cc(-c2nc3ccc(OCCCN(C)C)cc3[nH]2)ccc1-c1nc2ccc(OCCCN(C)C)cc2[nH]1 [Compound 258, 3,3′-((2,2′-(2-(2-methoxyethoxy)-1,4-phenylene)bis(1H-benzo[d]imidazole-6,2-diyl))bis(oxy))bis(N,N-dimethylpropan-1-amine)] | 10.0% | – | – | 31 µM
CN(C)CCCOc1ccc2nc(-c3ccc(-c4nc5ccc(OCCCN(C)C)cc5[nH]4)c(OCCO)c3)[nH]c2c1 [Compound 259, 2-(2,5-bis(6-(3-(dimethylamino)propoxy)-1H-benzo[d]imidazol-2-yl)phenoxy)ethanol] | −12.7% | – | – | 7.2 µM
CN(C)CCCOc1ccc2nc(-c3ccc(-c4nc5ccc(C(=O)NCCNC(=N)N)cc5[nH]4)cc3)[nH]c2c1 [Compound 264, 2-(4-(6-(3-(dimethylamino)propoxy)-1H-benzo[d]imidazol-2-yl)phenyl)-N-(2-guanidinoethyl)-1H-benzo[d]imidazole-6-carboxamide] | −23.5% | – | – | 6.03 µM
CN(C)CCCOc1ccc2nc(-c3ccc(-c4nc5ccc(OCCCN(C)C)cc5[nH]4)c(OCCN=[N+]=[N-])c3)[nH]c2c1 [Compound 265, 3,3′-((2,2′-(2-(2-azidoethoxy)-1,4-phenylene)bis(1H-benzo[d]imidazole-6,2-diyl))bis(oxy))bis(N,N-dimethylpropan-1-amine)] | 84.3% | – | – | 16.6 µM
CN(C)CCCOc1ccc2nc(-c3ccc(-c4nc5ccc(C(=O)OCCN(C)C)cc5[nH]4)cc3)[nH]c2c1 [Compound 266] | −13.1% | – | – | 10.7 µM
CN(C)CCCOc1ccc2nc(-c3ccc(-c4nc5ccc(OCCCN(C)C)cc5[nH]4)c(OCCCl)c3)[nH]c2c1 [Compound 267, 3,3′-(((2-(2-chloroethoxy)-1,4-phenylene)bis(1H-benzo[d]imidazole-2,6-diyl))bis(oxy))bis(N,N-dimethylpropan-1-amine)] | 1.8% | – | – | 10.9 µM
